Earlier results, collected in article PMC2615486 (Chemistry & biology, 2008).

Legend:
avidin = conditions: ref Green, N.M. 1970
[1] = ref Hyre, D.E., Le Trong, I., et al. 2006

| Compound | dissociation constant for avidin, weaker than that of biotin (avidin) | association rate for biotin [1] |
| --- | --- | --- |
| C[C@@H]1NC(=O)N[C@@H]1CCCCCC(=O)O [desthiobiotin] | 10^2–10^4 fold | – |
| streptavidin: wild-type streptavidin as described in the literature | – | ~ 1 × 10^8 M^−1s^−1 |
